{
  "source": "patent US9744137B2",
  "about": "“Topiramate compositions and methods of enhancing its bioavailability” (Supernus Pharmaceuticals, Inc., priority 2006, dated 2017)",
  "key": {"[1]": {"experiment": "Degradation of topiramate in 0.1 N HCl (simulated gastric fluid) at 37° C., HPLC-ELSD", "assay_type": "physicochemical", "conditions": "drug substance, 24 hours of incubation in 0.1 N HCl at 37° C.", "protocol": "Degradation of topiramate was detected during a dissolution profile of Topamax® tablets in simulated gastric fluid (i.e., 0.1 N HCl). […] Topiramate analysis was carried out using HPLC equipped with Evaporative Laser Light Scattering Detector at 92° C. Separation was achieved using a C-8 reversed-phase column under isocratic conditions of 50% acetonitrile in water. The samples were kept at 4° C. throughout the analysis. Prior to sample injection, the system was equilibrated for 1 hr and subjected to a system suitability test. Linearity was evaluated by linearity curve with power fit. The samples were injected in duplicate and degradation was calculated using the sample area linearity slope and power."}, "[2]": {"conditions": "cited from earlier work"}, "[3]": {"conditions": "cited from earlier work", "remark": "listed apart in the source"}, "[4]": {"system": "patients with epilepsy", "conditions": "cited from earlier work; for time leading up to the first seizure (median seizure-free duration): monotherapy"}},
  "note": "Like-named read-outs stand apart in the source and are kept apart here.",
  "data": [
    {"smiles": "CC1(C)OC2[C@@H](CO[C@@]3(COS(N)(=O)=O)OC(C)(C)O[C@@H]23)O1", "note": "(stereo partly drawn) [topiramate, 2,3:4,5-Di-O-isopropylidene-beta-D-fructopyranose sulfamate]", "values": [
      {"measurement": "topiramate degraded", "setting": "[1]", "value": "approximately 70%"},
      {"measurement": "plasma levels at steady state", "setting": "[2]; migraine prophylaxis", "value": "1200 to 4400", "unit": "ng/mL"},
      {"measurement": "mean serum level", "setting": "[2]; pediatric migraine study, daily dose 84.0+/−38.6 mg/day", "value": "2800 ± 1600", "unit": "ng/mL"},
      {"measurement": "effect of food on pharmacokinetics", "setting": "[3]; in vivo", "value": "not significantly affected by food"},
      {"measurement": "mean elimination half life", "setting": "[3]; in vivo", "value": "about 21 hours"},
      {"measurement": "time to peak plasma drug concentrations", "setting": "[3]; oral administration of an immediate release dosage form", "value": "approximately 2 hours"},
      {"measurement": "plasma topiramate concentration", "setting": "[4]; 9 patients who became seizure-free", "value": "5.3 ± 2.6", "unit": "µg/mL"},
      {"measurement": "time leading up to the first seizure (median seizure-free duration)", "setting": "[4]; 215 patients with partial epilepsy, serum concentrations <1.8 mg/L", "value": 84, "unit": "days"},
      {"measurement": "time leading up to the first seizure (median seizure-free duration)", "setting": "[4]; serum concentrations above 9.9 mg/L", "value": 451, "unit": "days"},
      {"measurement": "time leading up to the first seizure (median seizure-free duration)", "setting": "[4]; serum concentrations between 1.8 and 9.9 mg/L", "value": 194, "unit": "days"},
      {"measurement": "mean topiramate plasma concentration", "setting": "[4]; positive responders", "value": "around 7 μg/mL"},
      {"measurement": "mean topiramate plasma concentration", "setting": "[4]; seizure-free patients", "value": "~9", "unit": "µg/mL"}
    ]}
  ]
}
